Target: T1, PR (Homo sapiens, UniProt P06401)
T1 construct: made in house; host or cells: PR-B: rabbit reticulocyte lysate / T7 RNA polymerase in vitro translation (Promega)
T1 sequence (P06401 1-933): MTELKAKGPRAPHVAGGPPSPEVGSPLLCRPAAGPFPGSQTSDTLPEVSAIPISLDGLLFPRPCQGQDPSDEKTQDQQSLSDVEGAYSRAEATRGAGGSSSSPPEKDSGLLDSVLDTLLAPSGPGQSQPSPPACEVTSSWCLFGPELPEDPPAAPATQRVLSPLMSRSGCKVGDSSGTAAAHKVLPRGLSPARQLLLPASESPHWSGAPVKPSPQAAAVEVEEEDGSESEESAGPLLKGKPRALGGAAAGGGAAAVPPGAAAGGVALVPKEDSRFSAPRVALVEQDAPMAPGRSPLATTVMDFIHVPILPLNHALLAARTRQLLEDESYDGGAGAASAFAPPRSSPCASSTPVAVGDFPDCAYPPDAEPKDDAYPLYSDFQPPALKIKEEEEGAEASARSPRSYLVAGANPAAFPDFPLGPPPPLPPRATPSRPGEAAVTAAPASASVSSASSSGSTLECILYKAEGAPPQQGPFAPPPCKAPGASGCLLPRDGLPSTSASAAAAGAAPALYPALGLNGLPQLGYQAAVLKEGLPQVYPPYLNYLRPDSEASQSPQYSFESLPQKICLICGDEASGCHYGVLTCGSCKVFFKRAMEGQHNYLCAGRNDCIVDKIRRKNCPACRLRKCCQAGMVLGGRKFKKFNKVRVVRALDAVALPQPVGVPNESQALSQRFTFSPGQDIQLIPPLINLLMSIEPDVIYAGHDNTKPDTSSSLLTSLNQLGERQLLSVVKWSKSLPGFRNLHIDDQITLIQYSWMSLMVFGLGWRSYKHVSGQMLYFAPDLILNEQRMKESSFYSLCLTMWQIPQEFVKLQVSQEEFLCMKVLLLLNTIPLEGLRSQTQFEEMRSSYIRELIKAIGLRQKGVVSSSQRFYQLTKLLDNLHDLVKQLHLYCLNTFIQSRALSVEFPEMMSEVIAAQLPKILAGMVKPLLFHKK
T1 sequence (Q96PN7 1-1200 partner): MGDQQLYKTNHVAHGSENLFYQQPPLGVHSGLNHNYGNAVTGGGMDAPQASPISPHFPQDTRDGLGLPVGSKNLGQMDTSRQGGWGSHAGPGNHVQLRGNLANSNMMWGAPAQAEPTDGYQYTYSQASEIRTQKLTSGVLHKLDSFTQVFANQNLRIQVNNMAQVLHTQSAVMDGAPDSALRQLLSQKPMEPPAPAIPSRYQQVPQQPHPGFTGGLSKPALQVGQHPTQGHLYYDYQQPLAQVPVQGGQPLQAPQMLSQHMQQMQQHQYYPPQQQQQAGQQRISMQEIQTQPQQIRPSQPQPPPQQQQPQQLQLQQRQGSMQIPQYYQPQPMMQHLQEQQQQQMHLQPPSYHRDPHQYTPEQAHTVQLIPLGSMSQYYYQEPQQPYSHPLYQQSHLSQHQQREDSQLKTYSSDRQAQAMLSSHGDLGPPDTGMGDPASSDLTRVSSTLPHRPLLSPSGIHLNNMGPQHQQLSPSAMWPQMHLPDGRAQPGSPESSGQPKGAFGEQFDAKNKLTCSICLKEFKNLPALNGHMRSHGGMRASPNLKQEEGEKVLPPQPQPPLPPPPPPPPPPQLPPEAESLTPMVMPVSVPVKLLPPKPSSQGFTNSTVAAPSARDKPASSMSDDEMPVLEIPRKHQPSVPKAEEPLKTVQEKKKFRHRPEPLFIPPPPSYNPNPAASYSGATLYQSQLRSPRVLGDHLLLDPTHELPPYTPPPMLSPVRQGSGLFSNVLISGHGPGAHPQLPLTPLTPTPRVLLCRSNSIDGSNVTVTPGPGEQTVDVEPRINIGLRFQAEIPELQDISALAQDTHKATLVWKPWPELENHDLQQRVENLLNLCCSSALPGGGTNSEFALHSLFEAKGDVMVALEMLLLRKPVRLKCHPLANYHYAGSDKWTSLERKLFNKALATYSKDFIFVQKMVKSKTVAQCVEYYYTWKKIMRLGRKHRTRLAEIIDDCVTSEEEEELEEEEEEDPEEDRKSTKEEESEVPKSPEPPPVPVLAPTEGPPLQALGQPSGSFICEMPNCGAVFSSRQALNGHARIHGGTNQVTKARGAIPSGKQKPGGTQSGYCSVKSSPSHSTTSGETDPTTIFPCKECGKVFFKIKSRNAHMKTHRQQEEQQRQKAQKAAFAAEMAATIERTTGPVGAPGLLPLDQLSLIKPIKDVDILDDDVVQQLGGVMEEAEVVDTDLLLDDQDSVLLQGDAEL
Assay: GST pull-down, TReP-132 and PR
Format: binding
Procedure: FIG. 14D left: GST-TReP-132 immobilized on glutathione-Sepharose was incubated with ^35-[S]-methionine-labelled PR, in the absence or with increasing concentrations of progesterone (0-10 μM). Specific interactions were analyzed by comparison with the results obtained by incubating GST with ^35-[S]-PR, in the presence of 100 μM progesterone (GST).
FIG. 14D right: GST-TReP-132 wt, GST-TReP-132 ml (mutated at the LRQLL site) and GST-TReP-132 m2 (mutated at the LEMLL site) were analyzed for interaction with ^35-[S]-PR as described earlier, in the presence of 10 μM progesterone. Input PR: 1/10th of the radiolabelled PR level used in the experiments.
In order to evaluate the interaction of TReP-132, Sp1, ER and PR, the wt and mutant GST-TReP-132 fusion proteins were expressed, then immobilized on glutathione-Sepharose as described (Frangioni and Neel, 1993; Monte et al., 1998). The ^35S-[Sp1], ^35S-[ER] and ^35S-[PR-B] proteins were synthesized in vitro using a rabbit reticulocyte lysate and T7 RNA polymerase system as directed by the manufacturer (Promega Corporation, Madison, Wis.). Proteins which bound, then detached from the Sepharose after being heated to boiling in SDS buffer were then separated on a 10% SDS-PAGE gel. The gels were stained with Coomassie blue, dried and autoradiographed.

| Molecule | TReP-132/PR interaction in presence of progesterone (GST-TReP-132 and 35S-PR, progesterone 0-10 μM) | interaction with PR (GST pull-down with 35S-PR) |
| --- | --- | --- |
| CC(=O)[C@H]1CC[C@H]2[C@@H]3CCC4=CC(=O)CC[C@]4(C)[C@H]3CC[C@]12C [progesterone, reference compound] | increased in a dose-dependent manner |  |
| TReP-132: Transcriptional Regulating Protein of 132 kDa, polypeptide comprising SEQ ID NO: 2; here expressed in cells from vectors (protein) MGDQQLYKTNHVAHGSENLFYQQPPLGVHSGLNHNYGNAVTGGGMDAPQASPISPHFPQDTRDGLGLPVGSKNLGQMDTSRQGGWGSHAGPGNHVQLRGNLANSNMMWGAPAQAEPTDGYQYTYSQASEIRTQKLTSGVLHKLDSFTQVFANQNLRIQVNNMAQVLHTQSAVMDGAPDSALRQLLSQKPMEPPAPAIPSRYQQVPQQPHPGFTGGLSKPALQVGQHPTQGHLYYDYQQPLAQVPVQGGQPLQAPQMLSQHMQQMQQHQYYPPQQQQQAGQQRISMQEIQTQPQQIRPSQPQPPPQQQQPQQLQLQQRQGSMQIPQYYQPQPMMQHLQEQQQQQMHLQPPSYHRDPHQYTPEQAHTVQLIPLGSMSQYYYQEPQQPYSHPLYQQSHLSQHQQREDSQLKTYSSDRQAQAMLSSHGDLGPPDTGMGDPASSDLTRVSSTLPHRPLLSPSGIHLNNMGPQHQQLSPSAMWPQMHLPDGRAQPGSPESSGQPKGAFGEQFDAKNKLTCSICLKEFKNLPALNGHMRSHGGMRASPNLKQEEGEKVLPPQPQPPLPPPPPPPPPPQLPPEAESLTPMVMPVSVPVKLLPPKPSSQGFTNSTVAAPSARDKPASSMSDDEMPVLEIPRKHQPSVPKAEEPLKTVQEKKKFRHRPEPLFIPPPPSYNPNPAASYSGATLYQSQLRSPRVLGDHLLLDPTHELPPYTPPPMLSPVRQGSGLFSNVLISGHGPGAHPQLPLTPLTPTPRVLLCRSNSIDGSNVTVTPGPGEQTVDVEPRINIGLRFQAEIPELQDISALAQDTHKATLVWKPWPELENHDLQQRVENLLNLCCSSALPGGGTNSEFALHSLFEAKGDVMVALEMLLLRKPVRLKCHPLANYHYAGSDKWTSLERKLFNKALATYSKDFIFVQKMVKSKTVAQCVEYYYTWKKIMRLGRKHRTRLAEIIDDCVTSEEEEELEEEEEEDPEEDRKSTKEEESEVPKSPEPPPVPVLAPTEGPPLQALGQPSGSFICEMPNCGAVFSSRQALNGHARIHGGTNQVTKARGAIPSGKQKPGGTQSGYCSVKSSPSHSTTSGETDPTTIFPCKECGKVFFKIKSRNAHMKTHRQQEEQQRQKAQKAAFAAEMAATIERTTGPVGAPGLLPLDQLSLIKPIKDVDILDDDVVQQLGGVMEEAEVVDTDLLLDDQDSVLLQGDAEL |  | interact |

Reference: US20080044436A1, “Method for Screening and Compositions for Treating Cancers” (priority 2004, published 2008)
